Our source for the Ki and ED50 values is ChEMBL document CHEMBL1142248, “Structure-activity relationships and pharmacokinetic parameters of quinoline acylsulfonamides as potent and selective antagonists of the EP(4) receptor” (Bioorg Med Chem Lett, 2008).

Molecules are shown by their SMILES.

The target of assay [1] is T1, Prostaglandin E2 receptor EP4 subtype (Homo sapiens, UniProt P35408). Put plainly: Binding affinity to human EP4 receptor expressed in HEK293 cells in presence of 10% human serum. It counts as cell-based.
Assay [2] deals with T1, Prostaglandin E2 receptor EP4 subtype. Put plainly: Binding affinity to human EP4 receptor expressed in HEK293 cells. It counts as cell-based.
For assay [3], the target named is T2, Prostaglandin E2 receptor EP3 subtype (Homo sapiens, UniProt P43115).
T2 sequence (P43115 whole entry): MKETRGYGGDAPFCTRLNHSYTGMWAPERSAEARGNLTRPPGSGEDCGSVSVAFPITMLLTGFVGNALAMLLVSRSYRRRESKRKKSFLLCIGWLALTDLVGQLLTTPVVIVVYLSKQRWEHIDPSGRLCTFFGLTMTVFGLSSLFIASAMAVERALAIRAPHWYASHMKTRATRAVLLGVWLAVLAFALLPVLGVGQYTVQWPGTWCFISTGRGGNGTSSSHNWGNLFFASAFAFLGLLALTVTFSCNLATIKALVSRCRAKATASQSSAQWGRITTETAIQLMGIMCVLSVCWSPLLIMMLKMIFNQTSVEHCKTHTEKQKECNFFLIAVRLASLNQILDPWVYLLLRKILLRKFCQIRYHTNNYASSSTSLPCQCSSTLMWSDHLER
The experiment in a line: Binding affinity to human EP3 receptor expressed in HEK293 cells. It counts as cell-based.

In assay [4] the target is Prostaglandin E2 receptor EP2 subtype (Homo sapiens, UniProt P43116). The experiment in a line: Binding affinity to human EP2 receptor expressed in HEK293 cells. The class given is cell-based.
Assay [5] deals with T3, Prostaglandin E2 receptor EP1 subtype (Homo sapiens, UniProt P34995).
T3 sequence (P34995 whole entry): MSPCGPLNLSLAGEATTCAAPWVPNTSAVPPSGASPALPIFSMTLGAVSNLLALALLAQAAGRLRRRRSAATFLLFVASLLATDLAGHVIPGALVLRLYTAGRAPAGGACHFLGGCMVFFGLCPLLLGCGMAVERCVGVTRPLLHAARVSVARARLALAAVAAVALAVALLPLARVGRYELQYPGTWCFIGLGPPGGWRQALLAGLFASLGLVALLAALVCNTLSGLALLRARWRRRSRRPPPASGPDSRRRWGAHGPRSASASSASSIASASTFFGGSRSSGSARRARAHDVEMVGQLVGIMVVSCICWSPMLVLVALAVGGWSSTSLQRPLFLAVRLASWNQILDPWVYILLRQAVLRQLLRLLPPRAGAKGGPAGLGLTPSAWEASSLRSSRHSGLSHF
The experiment in a line: Binding affinity to human EP1 receptor expressed in HEK293 cells. It counts as cell-based.

The next assay deals with Prostacyclin receptor (Homo sapiens, UniProt P43119). The experiment in a line: Binding affinity to human IP receptor expressed in HEK293 cells. It counts as cell-based.
Assay [6] has as its target T4, Prostaglandin D2 receptor (Homo sapiens, UniProt Q13258).
T4 sequence (Q13258 whole entry): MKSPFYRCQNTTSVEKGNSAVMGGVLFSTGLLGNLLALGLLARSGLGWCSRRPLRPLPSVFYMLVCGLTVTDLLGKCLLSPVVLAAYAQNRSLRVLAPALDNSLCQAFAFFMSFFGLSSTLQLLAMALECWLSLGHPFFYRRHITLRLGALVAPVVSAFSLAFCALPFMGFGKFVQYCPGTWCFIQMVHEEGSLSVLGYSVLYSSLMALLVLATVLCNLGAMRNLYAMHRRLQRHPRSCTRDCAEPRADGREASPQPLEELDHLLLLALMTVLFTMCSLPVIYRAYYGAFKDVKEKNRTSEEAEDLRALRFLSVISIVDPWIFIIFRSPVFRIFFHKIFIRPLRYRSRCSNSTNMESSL
Put plainly: Binding affinity to human DP receptor expressed in HEK293 cells. The class given is cell-based.

For assay [7], the target named is Prostaglandin F2-alpha receptor (Homo sapiens, UniProt P43088). Put plainly: Binding affinity to human FP receptor expressed in HEK293 cells. It counts as cell-based.
Another assay deals with T5, Thromboxane A2 receptor (Homo sapiens, UniProt P21731).
T5 sequence (P21731 whole entry): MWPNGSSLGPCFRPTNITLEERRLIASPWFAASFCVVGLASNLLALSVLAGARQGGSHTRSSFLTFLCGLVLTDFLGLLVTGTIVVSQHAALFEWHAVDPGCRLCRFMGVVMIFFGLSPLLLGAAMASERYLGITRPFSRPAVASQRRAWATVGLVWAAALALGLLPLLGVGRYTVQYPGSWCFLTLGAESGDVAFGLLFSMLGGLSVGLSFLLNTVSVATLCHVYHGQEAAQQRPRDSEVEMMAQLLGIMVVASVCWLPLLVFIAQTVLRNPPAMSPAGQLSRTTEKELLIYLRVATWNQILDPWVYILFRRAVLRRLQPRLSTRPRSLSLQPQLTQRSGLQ
The experiment in a line: Binding affinity to human TP receptor expressed in HEK293 cells. The class given is cell-based.

The species entered for another assay is Rattus norvegicus. The experiment in a line: Antiinflammatory activity against adjuvant-induced rat arthritis model. It counts as functional.

T1 sequence (P35408 whole entry): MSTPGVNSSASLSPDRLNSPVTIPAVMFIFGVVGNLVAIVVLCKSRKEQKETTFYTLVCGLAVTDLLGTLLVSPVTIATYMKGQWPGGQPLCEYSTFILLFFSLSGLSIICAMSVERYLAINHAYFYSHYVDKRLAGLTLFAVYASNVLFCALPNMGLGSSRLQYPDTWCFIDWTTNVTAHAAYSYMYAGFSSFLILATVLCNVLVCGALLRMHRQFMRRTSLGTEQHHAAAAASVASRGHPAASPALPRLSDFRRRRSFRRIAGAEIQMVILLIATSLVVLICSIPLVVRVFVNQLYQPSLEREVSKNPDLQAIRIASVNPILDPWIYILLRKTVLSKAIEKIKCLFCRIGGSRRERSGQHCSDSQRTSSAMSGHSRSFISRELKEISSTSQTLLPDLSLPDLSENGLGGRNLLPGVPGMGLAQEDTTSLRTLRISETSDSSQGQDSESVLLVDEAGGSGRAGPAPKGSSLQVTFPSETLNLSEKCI
Chain of Prostaglandin E2 receptor EP2 subtype (P43116 whole entry): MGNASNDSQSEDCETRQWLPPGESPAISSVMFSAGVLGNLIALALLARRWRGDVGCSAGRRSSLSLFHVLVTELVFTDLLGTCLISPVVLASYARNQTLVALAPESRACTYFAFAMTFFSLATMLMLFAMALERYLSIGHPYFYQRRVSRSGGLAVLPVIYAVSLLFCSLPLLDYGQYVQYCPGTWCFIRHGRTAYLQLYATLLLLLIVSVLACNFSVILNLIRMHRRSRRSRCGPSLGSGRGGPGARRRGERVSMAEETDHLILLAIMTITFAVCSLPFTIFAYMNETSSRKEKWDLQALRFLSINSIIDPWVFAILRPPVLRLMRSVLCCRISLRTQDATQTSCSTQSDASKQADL
Chain of Prostaglandin F2-alpha receptor (P43088 whole entry): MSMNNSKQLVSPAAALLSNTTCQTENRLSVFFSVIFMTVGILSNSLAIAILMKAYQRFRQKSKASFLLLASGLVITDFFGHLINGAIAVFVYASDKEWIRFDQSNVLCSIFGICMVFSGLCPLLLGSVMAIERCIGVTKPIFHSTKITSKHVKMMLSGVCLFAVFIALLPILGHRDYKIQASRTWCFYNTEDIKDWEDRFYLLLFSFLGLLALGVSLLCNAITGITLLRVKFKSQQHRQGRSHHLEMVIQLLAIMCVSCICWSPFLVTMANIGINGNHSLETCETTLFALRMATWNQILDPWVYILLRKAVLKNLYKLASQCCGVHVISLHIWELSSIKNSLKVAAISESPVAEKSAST
Chain of Prostacyclin receptor (P43119 whole entry): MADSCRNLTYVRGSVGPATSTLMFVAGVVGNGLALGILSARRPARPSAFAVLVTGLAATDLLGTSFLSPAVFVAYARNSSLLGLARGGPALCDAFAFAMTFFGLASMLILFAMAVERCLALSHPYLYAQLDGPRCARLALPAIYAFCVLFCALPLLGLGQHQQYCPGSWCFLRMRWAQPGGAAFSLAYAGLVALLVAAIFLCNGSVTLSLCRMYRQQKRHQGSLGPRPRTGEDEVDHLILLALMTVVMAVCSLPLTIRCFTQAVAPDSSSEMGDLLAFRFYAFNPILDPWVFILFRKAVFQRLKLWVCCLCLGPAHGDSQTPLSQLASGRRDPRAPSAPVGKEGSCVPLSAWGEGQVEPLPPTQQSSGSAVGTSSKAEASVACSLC

Broadly, the Ki is the dissociation constant of the complex between target and ligand, obtained from inhibition or displacement. As to `CCOc1c2c(c(OCC)c3ncccc13)CN(c1ccc(CS(=O)(=O)NC(=O)Cc3ccccc3Cl)cc1C)C2=O`, the Ki in assay [1] is 37 nM; in [2] it was 0.27 nM.
In the same order, the values of `CCOc1c2c(c(OCC)c3ccccc13)C(=O)N(c1ccc(CS(=O)(=O)NC(=O)Cc3ccccc3)cc1)C2` are greater than 4000 nM and 0.31 nM.
In the same order, the values of `CCOc1c2c(c(OCC)c3ccccc13)C(=O)N(c1ccc(CS(=O)(=O)NC(=O)Cc3ccccc3)cc1C)C2` are 29 nM and 0.25 nM.
On to `CCOc1c2c(c(OCC)c3ccccc13)C(=O)N(c1ccc(CS(=O)(=O)NC(=O)Cc3cccc4ccccc34)cc1)C2`, for which the Ki in assay [1] turned out to be 4.8 nM; in [2], 0.43 nM.
The like results for `CCOc1c2c(c(OCC)c3ccccc13)C(=O)N(c1ccc(CS(=O)(=O)NC(=O)CCc3ccsc3)cc1)C2` were, in that order, greater than 4000 nM and 4.2 nM.
The like results for `CCOc1ccccc1CC(=O)NS(=O)(=O)Cc1ccc(N2Cc3c(c(OCC)c4cccnc4c3OCC)C2=O)c(C)c1` were, in that order, 8.9 nM and 0.27 nM.
In the same order, the values of `CCOc1c2c(c(OCC)c3ncccc13)C(=O)N(c1ccc(CS(=O)(=O)NC(=O)Cc3ccccc3)cc1C)C2` are 660 nM and 3.3 nM.
As for `CCOc1c2c(c(OCC)c3ccccc13)C(=O)N(c1ccc(CS(=O)(=O)NC(=O)COc3ccccc3)cc1)C2`, the Ki in assay [1] was determined as 1200 nM; in assay [2], 0.38 nM.
The like results for `CCOc1c2c(c(OCC)c3ccccc13)C(=O)N(c1ccc(CS(=O)(=O)NC(=O)Cc3cc(OC)ccc3OC)cc1)C2` were, in that order, 38 nM and 0.37 nM.
For the compound `CCOc1c2c(c(OCC)c3ncccc13)CN(c1ccc(CS(=O)(=O)NC(=O)C3(c4ccccc4OC)CC3)cc1C)C2=O`, the Ki in [1] worked out at 4.2 nM; in assay [2], 0.55 nM.
In the same order, the values of `CCOc1c2c(c(OCC)c3ncccc13)CN(c1ccc(CS(=O)(=O)NC(=O)Cc3ccccc3OC(F)F)cc1C)C2=O` are 13 nM and 0.32 nM.
In the same order, the values of `CCOc1c2c(c(OCC)c3ncccc13)CN(c1ccc(CS(=O)(=O)NC(=O)Cc3ccccn3)cc1C)C2=O` are 13 nM and 2.4 nM.
The like results for `CCOc1c2c(c(OCC)c3ncccc13)CN(c1ccc(CS(=O)(=O)NC(=O)Cc3ccccc3OC(F)(F)F)cc1C)C2=O` were, in that order, 56 nM and 0.21 nM.
For `COc1ccccc1C1(C(=O)NS(=O)(=O)Cc2ccc(N3Cc4c(c(OCC(F)(F)F)c5cccnc5c4OCC(F)(F)F)C3=O)c(C)c2)CC1`, the values for the Ki in [1] and in [2] were 12 nM and 0.95 nM, respectively.
The like results for `CCOc1c2c(c(OCC)c3ncccc13)CN(c1ccc(CS(=O)(=O)NC(=O)Cc3ccccc3C(F)(F)F)cc1C)C2=O` were, in that order, 350 nM and 0.43 nM.
In the same order, the values of `CCOc1c2c(c(OCC)c3ccccc13)C(=O)N(c1ccc(CS(=O)(=O)NC(=O)Cc3c(C)cc(C)cc3C)cc1)C2` are 380 nM and 0.43 nM.
In the case of `COc1ccccc1CC(=O)NS(=O)(=O)Cc1ccc(N2Cc3c(c(OCC(F)(F)F)c4cccnc4c3OCC(F)(F)F)C2=O)c(C)c1`, the values for the Ki in [1] and in assay [2] were 17 nM and 0.38 nM, respectively.
In the same order, the values of `CCOc1c2c(c(OCC)c3ncccc13)CN(c1ccc(CS(=O)(=O)NC(=O)Cc3c(Cl)cccc3Cl)cc1C)C2=O` are 4.8 nM and 0.28 nM.
As for `COc1ccccc1CC(=O)NS(=O)(=O)Cc1ccc(N2Cc3c(c(OC(C)C)c4cccnc4c3OC(C)C)C2=O)c(C)c1`, the Ki in assay [1] was 26 nM; in assay [2], 0.36 nM.
In the same order, the values of `CCOc1c2c(c(OCC)c3ncccc13)CN(c1ccc(CS(=O)(=O)NC(=O)Cc3ccncc3)cc1C)C2=O` are 160 nM and 9.8 nM.
In the same order, the values of `CCOc1c2c(c(OCC)c3ccccc13)C(=O)N(c1ccc(CS(=O)(=O)NC(=O)C3CCCc4ccccc43)cc1)C2` (stereo unspecified) are 940 nM and 1 nM.
With `CCOc1c2c(c(OCC)c3ncccc13)CN(c1ccc(CS(=O)(=O)NC(=O)Cc3ccccc3OC)cc1C)C2=O`, the Ki was 4000 nM in [3]; 1900 nM in assay [4]; greater than 7000 nM in assay [5]; 3.6 nM in assay [1]; greater than 7000 nM at Prostacyclin receptor; 1200 nM in assay [6]. In addition, the Ki in assay [7] worked out at 2000 nM; in assay [2], 0.74 nM; on Thromboxane A2 receptor, 630 nM.
As to `CCOc1c2c(c(OCC)c3ncccc13)CN(c1ccc(CS(=O)(=O)NC(=O)Cc3ccccc3F)cc1C)C2=O`, the Ki in [1] was 34 nM; in [2] it was 0.48 nM.
In the same order, the values of `CCOc1c2c(c(OCC)c3ccccc13)C(=O)N(c1ccc(CS(=O)(=O)NC(=O)Cn3nccc3C)cc1)C2` are 600 nM and 2 nM.
In the same order, the values of `CCOc1c2c(c(OCC)c3ncccc13)CN(c1ccc(CS(=O)(=O)NC(=O)Cc3ccccc3)cc1C)C2=O` are 31 nM and 0.76 nM.
Usually ED50 stands for the dose at which the effect has come halfway, by size or by number of responders. `COc1cccc(OC)c1C1(C(=O)NS(=O)(=O)Cc2ccc(N3Cc4c(c(OCC(F)(F)F)c5cccnc5c4OCC(F)(F)F)C3=O)c(C)c2)CC1`: the Ki is 2700 nM in assay [3]; 300 nM in assay [4]; greater than 9000 nM in [5]; 1.6 nM in [1]; 2000 nM at Prostacyclin receptor; 53 nM in assay [6]. Also, the Ki came to 340 nM in assay [7], 0.79 nM in assay [2] and 39 nM at Thromboxane A2 receptor. Also, in the assay listed under Rattus norvegicus, the ED50 was 0.005 mg/kg.
On to `CCOc1c2c(c(OCC)c3ccccc13)C(=O)N(c1ccc(CS(=O)(=O)NC(=O)Cc3cccc(OC)c3)cc1)C2`, for which the Ki in assay [1] was 1600 nM; in assay [2], 2.4 nM.
The like results for `CCOc1c2c(c(OCC)c3ccccc13)C(=O)N(c1ccc(CS(=O)(=O)NC(=O)C(c3ccccc3)c3ccccc3)cc1)C2` were, in that order, greater than 4000 nM and 7.9 nM.
In the case of `CCOc1c2c(c(OCC)c3ncccc13)CN(c1ccc(CS(=O)(=O)NC(=O)C3(c4c(OC)cccc4OC)CC3)cc1C)C2=O`, the Ki in assay [1] worked out at 2.3 nM; in assay [2], 0.54 nM.
The like results for `CCOc1c2c(c(OCC)c3ncccc13)CN(c1ccc(CS(=O)(=O)NC(=O)Cc3cccnc3)cc1C)C2=O` were, in that order, 48 nM and 2.8 nM.
Take `CS(=O)(=O)c1ccc(C2=C(c3ccccc3)C(=O)OC2)cc1` [ROFECOXIB]: the ED50 in the assay listed under Rattus norvegicus turned out to be 0.74 mg/kg.
